Assays:
Format in all cases: biochemical
Human CatG = molecular target: T1, Human CatG (Homo sapiens, UniProt P08311); test: Direct inhibition of CatG, chromogenic substrate (S-7388) hydrolysis assay, IC50 determination; settings: for HS (Hill slope): Hill slope of dose-response fit; for HS (Hill slope) / IC50 / ΔY (efficacy): 100 mM NaCl; for HS (Hill slope) / ΔY (efficacy): pH 7.4; for IC50: pH 7.4 tris buffer, 37 °C, 60 nM CatG, 750 µM S-7388, ± 1 S.E., read-out: IC50; for ΔY (efficacy): ΔY = YM − YO of dose-response fit; for fold difference (loss) in CatG inhibition potency relative to NSGM 25: ratio of IC50s versus 25
T1 construct: purchased Elastin Products Company (Owensville, MO, USA)
T1 sequence (P08311 21-255): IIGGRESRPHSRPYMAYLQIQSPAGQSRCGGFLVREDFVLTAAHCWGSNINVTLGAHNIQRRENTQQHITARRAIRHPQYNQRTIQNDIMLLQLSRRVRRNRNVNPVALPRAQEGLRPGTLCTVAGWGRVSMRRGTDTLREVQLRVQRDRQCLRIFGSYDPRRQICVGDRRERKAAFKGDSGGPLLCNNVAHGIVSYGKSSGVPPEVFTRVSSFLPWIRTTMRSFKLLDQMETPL
Method: A chromogenic substrate hydrolysis assay was used to determine the direct inhibition of CatG by the NSGMs, as previously reported. To each well of a 96-well microplate containing 88 µL of 20 mM tris buffer, containing 100 mM NaCl, 2.5 mM CaCl2, 0.1% PEG 8000, and 0.05% Tween 80, 4 µL of CatG (final concentration of 60 nM) and 5 µL of H2O or NSGM (final concentration of 0–100 µM) were added. After incubating for a period of 5 min, 3 µL of CatG substrate (S-7388, final concentration of 750 µM) was added, and the residual CatG activity was obtained from the initial rate of increase of absorbance at 405 nm. The relative residual activity of CatG for each of the NSGMs, at the various concentrations, was calculated from the ratio of CatG activity in the presence and absence of NSGMs. The dose dependence curve was plotted using a logistic equation (see below) in Sigmaplot version 12 to obtain the IC50 (potency), Hill slope (HS), and efficacy (ΔY). Here, Y is the ratio of residual CatG activity in the presence of NSGMs to that in their absence, YO and YM are the minimum and maximum values of fractional residual CatG activity, respectively, IC50 is the concentration of the NSGM that inhibits CatG activity by 50%, and HS is the Hill slope. ΔY = YM − YO. Y=YO+YM−YO/1+10^logI0−logIC50HS
Figure 4 Representative IC50 profiles for CatG inhibition by NSGMs. Direct inhibition of human CatG was measured using the chromogenic substrate hydrolysis assay at pH 7.4 and 37 °C. Solid lines represent analysis using the logistic dose–response relationship (Equation (1)) to obtain the IC50, ΔY%, and HS. Errors represent ± 1 S.E.

human plasma [1] = test: Activated partial thromboplastin time (aPTT) clotting assay; settings: concentration required to double the aPTT of pooled human plasma
Method: (§1) The impacts of NSGM 25 on activated partial thromboplastin time (aPTT) and the prothrombin time (PT) of human plasma were measured employing a standard one-stage recalcification assay at 37 °C, as previously reported. CaCl2 and thromboplastin-D were used to initiate clotting in aPTT and PT assays, respectively, in the absence and presence of NSGM 25, and the time to clot was recorded accordingly.

human plasma [2] = test: Prothrombin time (PT) clotting assay; settings: concentration required to double the PT of pooled human plasma
Method: as §1

Row | HS (Hill slope) (Human CatG) | IC50 (Human CatG) [µM] | ΔY (efficacy) (Human CatG) [%] | fold difference (loss) in CatG inhibition potency relative to NSGM 25 (Human CatG) [fold] | Structure (SMILES) | aPTT (EC2X) (human plasma [1]) [µM] | PT (EC2X) (human plasma [2]) [µM]
1 | 2.1 ± 0.5 | 18.9 ± 2.2 | 87 ± 5 | – | CCOC(=O)c1c(C)oc2cc(OCc3ccccc3)c(OCCCOc3cc(OS(=O)(=O)O)cc4oc(-c5ccc(OS(=O)(=O)O)cc5)cc(=O)c34)cc12 [NSGM 30] | – | –
2 | 1.5 ± 0.5 | 0.21 ± 0.04 | 94 ± 9 | 4 | O=c1c(OS(=O)(=O)O)c(-c2ccc(OS(=O)(=O)O)c(OS(=O)(=O)O)c2)oc2cc(OS(=O)(=O)O)cc(OCCCOc3cc(OS(=O)(=O)O)cc4oc(-c5ccc(OS(=O)(=O)O)c(OS(=O)(=O)O)c5)c(OS(=O)(=O)O)c(=O)c34)c12 [NSGM 24] | – | –
3 | 3.1 ± 1.0 | 3.3 ± 0.3 | 82 ± 4 | 66 | O=c1cc(-c2ccc(OS(=O)(=O)O)cc2)oc2cc(OS(=O)(=O)O)cc(OCc3ccc(COc4cc(OS(=O)(=O)O)cc5oc(-c6ccc(OS(=O)(=O)O)cc6)cc(=O)c45)cc3)c12 [NSGM 19] | – | –
4 | 1.9 ± 0.3 | > 100 | 115 ± 4 | – | Cc1ccc(OCCOc2cc(OS(=O)(=O)O)cc3oc(-c4ccc(OS(=O)(=O)O)cc4)cc(=O)c23)cc1 [NSGM 16] | – | –
5 | 1.5 ± 0.3 | 4.7 ± 0.7 | 81 ± 7 | – | O=c1cc(-c2ccc(OS(=O)(=O)O)cc2)oc2cc(OS(=O)(=O)O)cc(OCC=CCOc3cc(OS(=O)(=O)O)cc4oc(-c5ccc(OS(=O)(=O)O)cc5)cc(=O)c34)c12 [NSGM 18] | – | –
6 | – | > 50 | – | – | COc1cc2oc(C)c(C(=O)OCCOS(=O)(=O)O)c2cc1OS(=O)(=O)O [NSGM 3] | – | –
7 | 1.3 ± 0.8 | 10.3 ± 4.8 | 81 ± 7 | – | O=c1cc(-c2ccc(OS(=O)(=O)O)cc2)oc2cc(OS(=O)(=O)O)cc(OCc3cccc(COc4cc(OS(=O)(=O)O)cc5oc(-c6ccc(OS(=O)(=O)O)cc6)cc(=O)c45)c3)c12 [NSGM 21] | – | –
8 | 0.9 ± 0.4 | 0.15 ± 0.06 | 77 ± 10 | – | O=c1c(OS(=O)(=O)O)c(-c2ccc(OS(=O)(=O)O)c(OS(=O)(=O)O)c2)oc2cc(OS(=O)(=O)O)cc(OCc3cccc(COc4cc(OS(=O)(=O)O)cc5oc(-c6ccc(OS(=O)(=O)O)c(OS(=O)(=O)O)c6)c(OS(=O)(=O)O)c(=O)c45)c3)c12 [NSGM 27] | – | –
9 | 1.2 ± 0.2 | 1.3 ± 0.2 | 105 ± 7 | – | O=c1cc(-c2ccc(OS(=O)(=O)O)cc2)oc2cc(OS(=O)(=O)O)cc(OCc3ccc(COc4cc(OS(=O)(=O)O)cc5oc(-c6ccc(OS(=O)(=O)O)cc6)cc(=O)c45)nc3)c12 [NSGM 22] | – | –
10 | 0.9 ± 0.2 | 0.18 ± 0.04 | 77 ± 5 | – | O=c1c(OS(=O)(=O)O)c(-c2ccc(OS(=O)(=O)O)c(OS(=O)(=O)O)c2)oc2cc(OS(=O)(=O)O)cc(OCc3ccc(COc4cc(OS(=O)(=O)O)cc5oc(-c6ccc(OS(=O)(=O)O)c(OS(=O)(=O)O)c6)c(OS(=O)(=O)O)c(=O)c45)nc3)c12 [NSGM 28] | – | –
11 | – | – | – | – | CC1CNc2c(cccc2S(=O)(=O)N[C@@H](CCCNC(=N)N)C(=O)N2CC[C@@H](C)C[C@@H]2C(=O)O)C1 (some centres unmarked) [Argatroban, argatroban, reference compound] | 0.34 | 0.36
12 | 3.1 ± 1.3 | 65 ± 13 | 76 ± 7 | – | O=S(=O)(O)Oc1cc2c(c(OS(=O)(=O)O)c1)CC(OS(=O)(=O)O)C(c1ccc(OS(=O)(=O)O)c(OS(=O)(=O)O)c1)O2 (centres unmarked) [NSGM 17] | – | –
13 | – | – | – | – | O=C(NC[C@H]1CN(c2ccc(N3CCOCC3=O)cc2)C(=O)O1)c1ccc(Cl)s1 [Rivaroxaban, rivaroxaban, reference compound] | 0.12 | 0.15
14 | – | > 50 | – | – | CCOC(=O)c1c(C)oc2cc(OCc3cccc(OS(=O)(=O)O)c3)c(OS(=O)(=O)O)cc12 [NSGM 2] | – | –
15 | 4.1 ± 1.0 | 3.4 ± 0.2 | 103 ± 4 | – | O=c1cc(-c2ccc(OS(=O)(=O)O)cc2)oc2cc(OS(=O)(=O)O)cc(OCc3ccc(-c4ccc(COc5cc(OS(=O)(=O)O)cc6oc(-c7ccc(OS(=O)(=O)O)cc7)cc(=O)c56)cc4)cc3)c12 [NSGM 23] | – | –
